Assay results published in PubChem BioAssay (NCI).
Where “and” joins values, the source holds several entries; their conditions need not be identical. Equal values may be shown once.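 1) Cells in 96-well plates. 2) Compound, 48 h, 5 concentrations. 3) Linear interpolation between surrounding doses. 4) Unreached endpoint = highest concentration. GI50 marks 50% less growth. Definition used: TGI = concentration required for complete inhibition of growth.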

Columns and labels:
Experiment in all cases: NCI tumour cell line growth inhibition, 48 h
[1] = system: ACHN renal
[2] = system: SF-268 CNS
[3] = system: DLD-1 colon
[4] = system: DMS 114 small cell lung
[5] = system: DMS 273 small cell lung
[6] = system: KM20L2 colon
[7] = system: LXFL 529 NSCLC
[8] = system: M19-MEL melanoma
[9] = system: SNB-78 CNS
[10] = system: XF 498 CNS
[11] = system: HOP-18 NSCLC
[12] = system: P388/ADR leukemia
[13] = system: SN12K1 renal

Compound | TGI [1] | TGI [2] | other results
CCOc1cc2c(c(OCC)c1O)CC[C@@H]1[C@@H]2CC[C@]2(C)[C@@H](O)CC[C@@H]12 | 57.4 µM | 52.1 µM | 
N#CNC(=NCCc1c[nH]c2ccccc12)Oc1ccccc1 | > 100 µM | > 100 µM | TGI [3]: > 100 µM; TGI [4]: > 100 µM; TGI [5]: > 100 µM; TGI [6]: 49.8 µM; TGI [7]: > 100 µM; TGI [8]: > 100 µM; TGI [9]: > 100 µM; TGI [10]: > 100 µM
CCN1CN(c2ccccc2)C2(CCN(CC(CC3OCCO3)c3ccc(F)cc3)CC2)C1=O (stereo not given) | > 30.5 µM | 38.2 µM | 
COC1=C(C)C(=O)c2c(cc3c(c2O)C(C)(CCC=C(C)C)C(C)O3)C1=O (stereo not given) | > 100 µM | > 100 µM | TGI [3]: > 100 µM; TGI [4]: > 100 µM; TGI [5]: > 86.4 µM; TGI [11]: > 78.7 µM; TGI [6]: > 100 µM; TGI [7]: > 100 µM; TGI [8]: 30.1 µM; TGI [9]: > 100 µM; TGI [10]: > 100 µM
CC(=O)N(C(C)=O)c1cc2c3c(c1)CCCN3CCC2 | > 10 µM | > 10 µM | 
COC(=O)CC1c2ccccc2N2C(=O)Cc3c([nH]c4ccccc34)C12 (stereo not given) | > 100 µM | > 100 µM | 
Cc1nc2sccn2c1/C=C1/C(=O)Nc2cccc(Cl)c21 | > 100 µM | > 100 µM | 
CC(=O)OC(C)(C)CCC(=O)[C@](C)(O)[C@H]1[C@H](O)C[C@@]2(C)[C@@H]3CCc4c(cc(OC5OC(CO)C(O)C(O)C5O)c(O)c4C)C3(C)C(=O)C[C@]12C (stereo not given in full) | > 100 µM | > 100 µM | 
COc1ccc(NC(=S)c2ccoc2C)cc1CC(=O)OC(C)C | > 100 µM | > 100 µM | 
CN1CC2CN(Cc3ccccc3)CCN2c2cccnc21 (stereo not given) | > 100 µM | > 100 µM | 
COc1ccc(/C=C2\C[C@H]3[C@@H]4CCC5=CC(=O)CC[C@]5(C)[C@H]4CC[C@]3(C)C2=O)cc1OC | > 100 µM | > 100 µM | 
COc1cc(C2c3cc4c(cc3[C@@H](NCCN3CCOCC3)C3COC(=O)[C@H]23)OCO4)cc(OC)c1O (stereo not given in full) | 1.34 µM and 2.84 µM | 10.2 µM | GI50 [1]: 0.264 µM and 0.679 µM; TGI [3]: 22.8 µM and > 17.5 µM; GI50 [4]: 1.43 µM and 2.95 µM; TGI [4]: 5.05 µM and 8.98 µM; TGI [5]: 7.72 µM and 5.44 µM; TGI [11]: 32.9 µM and > 17.5 µM; TGI [6]: 16.7 µM and > 17.5 µM; TGI [7]: 34.1 µM and > 17.5 µM; TGI [9]: > 75 µM
CN(Cc1cnc2c(N)nc(N)nc2n1)c1ccc(Cl)cc1 | > 100 µM | > 100 µM | 
CC(C)NC(=O)OCc1c2c(n(C)c1COC(=O)NC(C)C)-c1ccccc1CC2 |  | 28.8 µM | TGI [3]: 16.9 µM; TGI [4]: 17 µM; TGI [5]: 27.3 µM; TGI [11]: 13.9 µM; TGI [6]: 28 µM; TGI [8]: 23 µM; TGI [12]: 5.27 µM; TGI [13]: 24.4 µM; TGI [9]: 72 µM; TGI [10]: 28.2 µM
c1ccc2c(c1)OC(N1CCCC1)c1cnc(N3CCOCC3)nc1-2 (stereo not given) | > 100 µM | > 100 µM | 
COc1ccccc1C1c2cc3c(cc2OC(N2CCOCC2)C1C)OCO3 (stereo not given) | > 100 µM | 40.9 µM | 
COc1cccc(/C=C2\S/C(=N/Nc3nc(-c4ccc([N+](=O)[O-])cc4)cs3)NC2=O)c1O | 32.3 µM | 21.8 µM | 

Compound | TGI [1] | TGI [2] | other results
Cc1ccc(C(=O)N/N=C(\N=Nc2ccc(C(=O)O)cc2)c2ccc(N(CCC#N)CCC#N)cc2C)cc1 | > 100 µM |  | 
O=C(O)C1CCCCN1c1ccccc1[N+](=O)[O-] (stereo not given) | > 100 µM | > 100 µM | TGI [3]: > 100 µM; TGI [4]: > 100 µM; TGI [5]: > 100 µM; TGI [11]: > 100 µM; TGI [6]: > 100 µM; TGI [7]: > 100 µM; TGI [8]: > 100 µM; TGI [9]: > 100 µM; TGI [10]: > 100 µM
COc1cc2c(c(OC)c1OC)-c1ccc(SC)cc1C(O)CC2 (stereo not given) | > 100 µM and 97.9 µg/mL | 11.6 µM | 
COC(=O)C12OC3CO[Si](C(C)C)(C(C)C)O[Si](C(C)C)(C(C)C)OC3C1Oc1nc(=O)ccn12 (stereo not given) | 32.2 µM | 24.6 µM | 
Cn1c(N)nc(-c2ccc(Cl)cc2)c1SSc1c(-c2ccc(Cl)cc2)nc(N)n1C | 5.14 µM | 7.1 µM | 
CCCCCCCCCCCCCCCCCCOCC(O)COP(=O)(O)OCC1OC(n2ccc(N)nc2=O)C(O)C1O (stereo not given) | > 100 µM | 49.8 µM | 
O=c1oc2cc(O)ccc2c(O)c1Cc1c(O)c2ccc(O)cc2oc1=O |  | > 100 µM | 
Cc1ccc(Nc2nc3c(=O)n(C)c(=O)n(C)c3nc2Nc2ccc(C)cc2)cc1 | 11.8 µM | 32.2 µM | 
CCOC(=O)C(Cl)(NC(=O)OCc1ccccc1)C(F)(F)F (stereo not given) | > 100 µM | > 100 µM | 
CC(=O)CC1=C(OC(C)C)C2(OCCO2)C1O (stereo not given) | > 100 µM | > 100 µM | 
O=C(Nc1ccc(Cl)cc1)c1cc(S(=O)(=O)Nc2nnc3c(Cl)cc(C(F)(F)F)cn23)c(S)cc1Cl | > 100 µM | > 100 µM | 
COC(=O)/C=C1/OC(c2ccc(OC)cc2)=C(Cl)C1=O | 31.8 µM | 36.8 µM | 
CCO/C=N/C1=C(C#N)SC2=N/C(=C\c3ccccc3)C(=O)N21 | > 100 µM | > 100 µM | 
Fc1ccc(C(OCCN2CC3CCC(C2)N3CCCc2ccccc2)c2ccc(F)cc2)cc1 | 22.4 µM | 15.1 µM | 
O=C1c2ccccc2N2Oc3ccccc3C12c1ccccc1 (stereo not given) | > 100 µM | > 100 µM | TGI [4]: > 100 µM; TGI [5]: > 100 µM; TGI [11]: > 100 µM; TGI [6]: > 100 µM; TGI [7]: > 100 µM; TGI [8]: > 100 µM; TGI [9]: > 100 µM
COc1ccc(-c2c(C#N)c(S)n(NS(=O)(=O)c3ccccc3)c(=O)c2C#N)cc1 | > 100 µM | > 100 µM | 
